Measurements published in ChEMBL document CHEMBL1149948, “Chemical and enzymatic synthesis of high-affinity selectin ligands” (Bioorg Med Chem Lett, 1997).

Tests used:
P-selectin = molecular target: T1, P-selectin (Homo sapiens, UniProt P16109); assay: Tested for its ability to inhibit HL60 cell adhesion to P-selectin-IgG fusion proteins; format: cell-based, HL-60
T1 sequence (P16109 whole entry): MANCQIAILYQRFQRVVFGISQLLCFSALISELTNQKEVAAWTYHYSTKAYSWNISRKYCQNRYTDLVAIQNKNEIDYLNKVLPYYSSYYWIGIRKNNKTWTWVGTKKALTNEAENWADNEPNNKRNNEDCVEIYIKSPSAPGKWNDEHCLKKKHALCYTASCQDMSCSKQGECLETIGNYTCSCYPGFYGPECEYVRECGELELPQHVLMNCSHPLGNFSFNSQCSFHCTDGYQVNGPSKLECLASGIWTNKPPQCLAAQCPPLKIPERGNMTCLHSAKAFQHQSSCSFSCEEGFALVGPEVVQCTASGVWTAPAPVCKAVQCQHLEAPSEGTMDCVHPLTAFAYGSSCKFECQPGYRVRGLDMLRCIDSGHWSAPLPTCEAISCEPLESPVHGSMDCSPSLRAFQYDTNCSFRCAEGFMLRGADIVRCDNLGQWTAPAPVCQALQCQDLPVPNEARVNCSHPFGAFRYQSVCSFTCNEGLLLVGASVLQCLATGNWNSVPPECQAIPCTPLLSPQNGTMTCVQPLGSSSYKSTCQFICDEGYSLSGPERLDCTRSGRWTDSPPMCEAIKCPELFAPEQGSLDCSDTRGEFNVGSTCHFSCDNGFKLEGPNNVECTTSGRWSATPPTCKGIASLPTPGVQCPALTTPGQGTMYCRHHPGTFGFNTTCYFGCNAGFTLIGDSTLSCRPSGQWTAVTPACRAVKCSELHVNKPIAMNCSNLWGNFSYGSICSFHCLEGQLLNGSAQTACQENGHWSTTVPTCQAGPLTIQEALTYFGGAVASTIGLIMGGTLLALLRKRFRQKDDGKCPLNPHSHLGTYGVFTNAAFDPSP

E-selectin = molecular target: T2, E-selectin (Homo sapiens, UniProt P16581); assay: Tested for its ability to inhibit HL60 cell adhesion to Selectin E IgG fusion proteins; format: cell-based, HL-60
T2 sequence (P16581 whole entry): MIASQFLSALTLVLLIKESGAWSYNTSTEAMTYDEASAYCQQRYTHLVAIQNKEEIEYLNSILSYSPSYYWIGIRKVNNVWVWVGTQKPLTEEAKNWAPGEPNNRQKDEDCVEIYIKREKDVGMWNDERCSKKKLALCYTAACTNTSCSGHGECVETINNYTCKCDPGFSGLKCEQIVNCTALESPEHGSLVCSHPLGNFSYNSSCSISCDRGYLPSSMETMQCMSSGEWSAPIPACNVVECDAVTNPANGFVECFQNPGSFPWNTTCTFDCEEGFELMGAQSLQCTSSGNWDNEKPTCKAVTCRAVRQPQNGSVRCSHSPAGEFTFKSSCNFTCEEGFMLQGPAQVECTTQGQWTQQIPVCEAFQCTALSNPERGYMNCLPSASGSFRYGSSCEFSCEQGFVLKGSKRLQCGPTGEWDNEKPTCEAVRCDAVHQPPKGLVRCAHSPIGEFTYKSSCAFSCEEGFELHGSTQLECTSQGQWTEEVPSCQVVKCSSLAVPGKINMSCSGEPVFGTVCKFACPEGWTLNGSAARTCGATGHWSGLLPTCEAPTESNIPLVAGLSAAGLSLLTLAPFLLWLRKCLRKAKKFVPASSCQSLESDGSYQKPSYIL

CC(=O)N[C@@H]1[C@H](OCCCCCCN)O[C@@H](CO)[C@@H](O[C@@H]2O[C@@H](CO)[C@H](O)[C@H](O[C@]3(C(=O)O)C[C@@H](O)[C@@H](NC(C)=O)[C@H]([C@H](O)[C@H](O)CO)O3)[C@@H]2O)[C@@H]1O[C@@H]1O[C@@H](C)[C@@H](O)[C@H](O)[C@@H]1O
IC50 (P-selectin; hl-60): 2000 µM

CC(=O)N[C@@H]1[C@H](OCCCCCCN)O[C@@H](CO)[C@@H](O[C@@H]2O[C@@H](CO)[C@H](O)[C@H](O[C@]3(C(=O)O)C[C@@H](O)C[C@H]([C@H](O)[C@H](O)CO)O3)[C@@H]2O)[C@@H]1O[C@@H]1O[C@@H](C)[C@@H](O)[C@H](O)[C@@H]1O
IC50 (E-selectin): 700 µM | IC50 (P-selectin): 700 µM

CC(=O)N[C@@H]1[C@H](OCCCCCCN)O[C@@H](CO)[C@@H](O[C@@H]2O[C@@H](CO)[C@H](O)[C@H](O[C@]3(C(=O)O)C[C@@H](O)[C@@H](N)[C@H]([C@H](O)[C@H](O)CO)O3)[C@@H]2O)[C@@H]1O[C@@H]1O[C@@H](C)[C@@H](O)[C@H](O)[C@@H]1O
IC50 (E-selectin): 900 µM | IC50 (P-selectin): 1000 µM

C[C@@H]1O[C@@H](O[C@@H]2[C@H](N)[C@H](OCCCCCCN)O[C@@H](CO)[C@H]2O[C@@H]2O[C@@H](CO)[C@H](O)[C@H](O[C@]3(C(=O)O)C[C@@H](O)[C@@H](N)[C@H]([C@H](O)[C@H](O)CO)O3)[C@@H]2O)[C@@H](O)[C@@H](O)[C@@H]1O
IC50 (E-selectin): 270 µM | IC50 (P-selectin): 160 µM
